Experimental data: PMC5218480 (PLoS ONE, 2017)

Tested on: MV-4-11 cells
Experiment: Gene expression microarray analysis (Affymetrix PrimeView) and GSEA
Type: cell-based, human
Design: RFU PODN (11730768_x_at) / Fold change /veh PODN (11730768_x_at) / RFU LINC00158 (11744669_a_at) / Fold change /veh LINC00158 (11744669_a_at) / RFU DUSP10 (11751237_a_at) / Fold change /veh DUSP10 (11751237_a_at) / RFU ID3 (11757404_x_at) / Fold change /veh ID3 (11757404_x_at) / RFU PLEKHG5 (11737974_s_at) / Fold change /veh PLEKHG5 (11737974_s_at) / RFU LRRC4B (11730491_at) / Fold change /veh LRRC4B (11730491_at) / RFU GIMAP4 (11747438_a_at) / Fold change /veh GIMAP4 (11747438_a_at) / RFU KRT8 (11758183_x_at) / Fold change /veh KRT8 (11758183_x_at) / RFU CNN1 (11734310_a_at) / Fold change /veh CNN1 (11734310_a_at) / RFU VPS37D (11726825_at) / Fold change /veh VPS37D (11726825_at) / RFU C10orf10 (11716522_x_at) / Fold change /veh C10orf10 (11716522_x_at) / RFU KIR2DL2 /// KIR2DL4 /// KIR2DL5A /// KIR2DL5B /// KIR2DS1 /// KIR2DS2 /// KIR2DS3 /// KIR2DS4 /// KIR3DL3 /// KIR3DL3 /// KIR3DS1 (11738374_at) / Fold change /veh KIR2DL2 /// KIR2DL4 /// KIR2DL5A /// KIR2DL5B /// KIR2DS1 /// KIR2DS2 /// KIR2DS3 /// KIR2DS4 /// KIR3DL3 /// KIR3DL3 /// KIR3DS1 (11738374_at) / RFU C1QL1 (11718748_at) / Fold change /veh C1QL1 (11718748_at) / RFU TMPRSS4 (11747572_a_at) / Fold change /veh TMPRSS4 (11747572_a_at) / RFU HAMP (11756126_x_at) / Fold change /veh HAMP (11756126_x_at) / RFU RNFT2 (11725882_a_at) / Fold change /veh RNFT2 (11725882_a_at) / RFU NR4A2 (11747474_a_at) / Fold change /veh NR4A2 (11747474_a_at) / RFU ABCC12 (11746883_a_at) / Fold change /veh ABCC12 (11746883_a_at) / RFU TMEM136 (11760407_x_at) / Fold change /veh TMEM136 (11760407_x_at) / RFU CLDN22 /// WWC2 (11732394_at) / Fold change /veh CLDN22 /// WWC2 (11732394_at) / RFU HLA-DPB1 (11760878_x_at) / Fold change /veh HLA-DPB1 (11760878_x_at) / RFU SPINT1 (11716480_a_at) / Fold change /veh SPINT1 (11716480_a_at) / RFU GAP43 (11754022_s_at) / Fold change /veh GAP43 (11754022_s_at) / RFU A4GNT (11735810_at) / Fold change /veh A4GNT (11735810_at) / RFU PRB3 (11715151_x_at) / Fold change /veh PRB3 (11715151_x_at) / RFU TUBB4B (11761932_at) / Fold change /veh TUBB4B (11761932_at) / RFU CAPN14 (11732068_a_at) / Fold change /veh CAPN14 (11732068_a_at) / RFU TMCC2 (11721928_a_at) / Fold change /veh TMCC2 (11721928_a_at) / RFU IRGQ (11745062_a_at) / Fold change /veh IRGQ (11745062_a_at) / RFU FAM174B (11720279_a_at) / Fold change /veh FAM174B (11720279_a_at) / RFU TMPRSS4 (11748680_a_at) / Fold change /veh TMPRSS4 (11748680_a_at) / RFU FAM212B (11763350_a_at) / Fold change /veh FAM212B (11763350_a_at) / RFU PLEKHG5 (11743358_a_at) / Fold change /veh PLEKHG5 (11743358_a_at) / RFU ZSCAN30 (11745921_a_at) / Fold change /veh ZSCAN30 (11745921_a_at) / RFU CMKLR1 (11741424_a_at) / Fold change /veh CMKLR1 (11741424_a_at) / RFU LOC101060620 /// MAPK8IP1 (11723275_at) / Fold change /veh LOC101060620 /// MAPK8IP1 (11723275_at) / RFU SPTSSB (11747773_x_at) / Fold change /veh SPTSSB (11747773_x_at) / RFU PRSS12 (11739890_at) / Fold change /veh PRSS12 (11739890_at) / RFU BIN1 (11741810_x_at) / Fold change /veh BIN1 (11741810_x_at) / RFU WNT11 (11732464_a_at) / Fold change /veh WNT11 (11732464_a_at) / RFU C10orf10 (11716521_a_at) / Fold change /veh C10orf10 (11716521_a_at) / RFU C5orf56 (11738089_at) / Fold change /veh C5orf56 (11738089_at) / RFU CYB561 (11721691_x_at) / Fold change /veh CYB561 (11721691_x_at) / RFU ANKRD19P (11752326_a_at) / Fold change /veh ANKRD19P (11752326_a_at) / RFU OR2T12 /// OR2T33 /// OR2T8 (11738714_s_at) / Fold change /veh OR2T12 /// OR2T33 /// OR2T8 (11738714_s_at) / RFU VCAN (11748164_a_at) / Fold change /veh VCAN (11748164_a_at) / RFU JSRP1 (11732532_at) / Fold change /veh JSRP1 (11732532_at) / RFU KRTAP10-11 (11738290_x_at) / Fold change /veh KRTAP10-11 (11738290_x_at) / RFU MYO3A (11730013_a_at) / Fold change /veh MYO3A (11730013_a_at) / RFU EBF3 (11725865_a_at) / Fold change /veh EBF3 (11725865_a_at) / RFU CAMK2N1 (11719241_x_at) / Fold change /veh CAMK2N1 (11719241_x_at) / RFU C5orf56 (11738088_a_at) / Fold change /veh C5orf56 (11738088_a_at) / RFU OLFML3 (11715873_a_at) / Fold change /veh OLFML3 (11715873_a_at) / RFU LOC100653217 /// NTM (11731650_a_at) / Fold change /veh LOC100653217 /// NTM (11731650_a_at) / RFU MAPK11 (11762145_a_at) / Fold change /veh MAPK11 (11762145_a_at) / RFU FIZ1 (11724087_x_at) / Fold change /veh FIZ1 (11724087_x_at) / RFU OASL (11726364_x_at) / Fold change /veh OASL (11726364_x_at) / RFU SOX15 (11748057_x_at) / Fold change /veh SOX15 (11748057_x_at) / RFU CD79A (11719716_a_at) / Fold change /veh CD79A (11719716_a_at) / RFU HIST1H1D (11736915_at) / Fold change /veh HIST1H1D (11736915_at) / RFU CASKIN2 (11723855_a_at) / Fold change /veh CASKIN2 (11723855_a_at) / RFU LOC730098 (11760151_x_at) / Fold change /veh LOC730098 (11760151_x_at) / RFU OR4N2 (11742367_at) / Fold change /veh OR4N2 (11742367_at) / RFU PRRT2 (11749266_a_at) / Fold change /veh PRRT2 (11749266_a_at) / RFU SNX32 (11753110_a_at) / Fold change /veh SNX32 (11753110_a_at) / RFU CDHR5 (11726645_a_at) / Fold change /veh CDHR5 (11726645_a_at) / RFU RCAN1 (11760418_a_at) / Fold change /veh RCAN1 (11760418_a_at) / RFU FAM167A (11723789_a_at) / Fold change /veh FAM167A (11723789_a_at) / RFU FAM26E (11764081_at) / Fold change /veh FAM26E (11764081_at) / RFU ISYNA1 (11749810_s_at) / Fold change /veh ISYNA1 (11749810_s_at) / RFU ACY1 (11761880_at) / Fold change /veh ACY1 (11761880_at) / RFU 11764098_at / Fold change /veh 11764098_at / RFU SAMD14 (11745864_x_at) / Fold change /veh SAMD14 (11745864_x_at) / RFU NPB (11741838_a_at) / Fold change /veh NPB (11741838_a_at) / RFU TMPRSS6 (11731388_a_at) / Fold change /veh TMPRSS6 (11731388_a_at) / RFU KRTAP10-2 (11738614_at) / Fold change /veh KRTAP10-2 (11738614_at) / RFU ARHGAP8 /// PRR5-ARHGAP8 (11727945_x_at) / Fold change /veh ARHGAP8 /// PRR5-ARHGAP8 (11727945_x_at) / RFU KRTAP5-7 /// NADSYN1 (11734609_at) / Fold change /veh KRTAP5-7 /// NADSYN1 (11734609_at) / RFU RASL12 (11751679_a_at) / Fold change /veh RASL12 (11751679_a_at) / RFU CDKN2B (11736163_a_at) / Fold change /veh CDKN2B (11736163_a_at) / RFU PRF1 (11729649_at) / Fold change /veh PRF1 (11729649_at) / RFU, ZNF638 /// ZNF638-IT1 / Fold change vs veh, ZNF638 /// ZNF638-IT1 / RFU, PANK3 / Fold change vs veh, PANK3 / RFU, SH3YL1 / Fold change vs veh, SH3YL1 / RFU, ZEB2 / Fold change vs veh, ZEB2 / RFU, NRIP1 / Fold change vs veh, NRIP1 / RFU, PTTG1IP / Fold change vs veh, PTTG1IP / RFU, CAPN2 / Fold change vs veh, CAPN2 / RFU, MED14 / Fold change vs veh, MED14 / RFU, SNORA58 / Fold change vs veh, SNORA58 / RFU, C1orf63 / Fold change vs veh, C1orf63 / RFU, LRRFIP1 / Fold change vs veh, LRRFIP1 / RFU, NDUFAF7 / Fold change vs veh, NDUFAF7 / RFU, SLC12A2 / Fold change vs veh, SLC12A2 / RFU, IBTK / Fold change vs veh, IBTK / RFU, ESF1 / Fold change vs veh, ESF1 / Fold change vs veh, TMEM50B / RFU, TAOK1 / Fold change vs veh, TAOK1 / RFU, ACBD3 / Fold change vs veh, ACBD3 / RFU, TMA16 / Fold change vs veh, TMA16 / RFU, RWDD3 / Fold change vs veh, RWDD3 / RFU, BCAT1 / Fold change vs veh, BCAT1 / RFU, EDEM3 / Fold change vs veh, EDEM3 / RFU, TMEM33 / Fold change vs veh, TMEM33 / RFU, WDR75 / Fold change vs veh, WDR75 / RFU, AHCTF1 / Fold change vs veh, AHCTF1 / RFU, TFRC / Fold change vs veh, TFRC / RFU, ZDHHC17 / Fold change vs veh, ZDHHC17 / RFU, NOM1 / Fold change vs veh, NOM1 / RFU, ARL8B / Fold change vs veh, ARL8B / RFU, ZBTB11 / Fold change vs veh, ZBTB11 / RFU, TAMM41 / Fold change vs veh, TAMM41 / RFU, KIAA1704 /// LOC100996395 / Fold change vs veh, KIAA1704 /// LOC100996395 / RFU, ING1 / Fold change vs veh, ING1 / RFU, TRMT61B / Fold change vs veh, TRMT61B / RFU, FUBP3 / Fold change vs veh, FUBP3 / RFU, TP53 / Fold change vs veh, TP53 / RFU, TNKS2 / Fold change vs veh, TNKS2 / RFU, ZFP14 / Fold change vs veh, ZFP14 / RFU, ACTR2 / Fold change vs veh, ACTR2 / RFU, PPP3R1 / Fold change vs veh, PPP3R1 / RFU, PIK3R1 / Fold change vs veh, PIK3R1 / RFU, HNRNPA1 / Fold change vs veh, HNRNPA1 / RFU, RNF170 / Fold change vs veh, RNF170 / RFU, ZNF28 / Fold change vs veh, ZNF28 / RFU, RNGTT / Fold change vs veh, RNGTT / RFU, OGT / Fold change vs veh, OGT / RFU, BRD1 / Fold change vs veh, BRD1 / RFU, MARS / Fold change vs veh, MARS / RFU, ZNF655 / Fold change vs veh, ZNF655 / RFU, FAHD1 / Fold change vs veh, FAHD1 / RFU, BDP1 / Fold change vs veh, BDP1 / RFU, LRRCC1 / Fold change vs veh, LRRCC1 / RFU, ARID1A / Fold change vs veh, ARID1A / RFU, ZNF146 / Fold change vs veh, ZNF146 / RFU, ZNF330 / Fold change vs veh, ZNF330 / RFU, GPN3 / Fold change vs veh, GPN3 / RFU, C9orf123 / Fold change vs veh, C9orf123 / RFU, N4BP2L2 / Fold change vs veh, N4BP2L2 / RFU, ARFIP1 / Fold change vs veh, ARFIP1 / RFU, FAM179B / Fold change vs veh, FAM179B / RFU, BCL10 / Fold change vs veh, BCL10 / RFU, UHRF1BP1L / Fold change vs veh, UHRF1BP1L / RFU, BET1 / Fold change vs veh, BET1 / RFU, CNOT2 / Fold change vs veh, CNOT2 / RFU, ZNF268 / Fold change vs veh, ZNF268 / Fold change vs veh, ZNF507 / RFU, DGCR2 / Fold change vs veh, DGCR2 / RFU, WDSUB1 / Fold change vs veh, WDSUB1 / Fold change vs veh, HSP90B1 /// MIR3652 / RFU, ADSS / Fold change vs veh, ADSS / RFU, GK / Fold change vs veh, GK / RFU, ZNF148 / Fold change vs veh, ZNF148 / RFU, TAF9 / Fold change vs veh, TAF9 / RFU, SLC1A5 / Fold change vs veh, SLC1A5 / RFU, SLMO2 / Fold change vs veh, SLMO2 / RFU, ABCC4 / Fold change vs veh, ABCC4 / RFU, LOC101060439 /// RAP1B / Fold change vs veh, LOC101060439 /// RAP1B / RFU, RFX7 / Fold change vs veh, RFX7 / RFU, GTPBP10 / Fold change vs veh, GTPBP10 / RFU, CNEP1R1 / Fold change vs veh, CNEP1R1 / RFU, BIVM-ERCC5 /// ERCC5 / Fold change vs veh, BIVM-ERCC5 /// ERCC5 / RFU, ILF3 / Fold change vs veh, ILF3 / RFU 11762660_at / Fold change /veh 11762660_at / RFU VCAN (11757783_s_at) / Fold change /veh VCAN (11757783_s_at) / RFU DDX43 (11728927_at) / Fold change /veh DDX43 (11728927_at) / RFU KRT8 (11758188_x_at) / Fold change /veh KRT8 (11758188_x_at) / RFU NKD1 (11759106_at) / Fold change /veh NKD1 (11759106_at) / RFU SRD5A1 (11742802_a_at) / Fold change /veh SRD5A1 (11742802_a_at) / RFU TPSAB1 /// TPSB2 (11721975_s_at) / Fold change /veh TPSAB1 /// TPSB2 (11721975_s_at) / RFU GSTM3 (11746129_a_at) / Fold change /veh GSTM3 (11746129_a_at) / RFU IL23R (11737362_x_at) / Fold change /veh IL23R (11737362_x_at) / RFU TMEM51 (11727254_a_at) / Fold change /veh TMEM51 (11727254_a_at) / RFU PIWIL2 (11732686_x_at) / Fold change /veh PIWIL2 (11732686_x_at) / RFU ORM1 (11744905_x_at) / Fold change /veh ORM1 (11744905_x_at) / RFU CCDC152 (11743942_at) / Fold change /veh CCDC152 (11743942_at) / RFU ECM1 (11717891_a_at) / Fold change /veh ECM1 (11717891_a_at) / RFU IL23R (11748794_a_at) / Fold change /veh IL23R (11748794_a_at) / RFU TNFAIP8L3 (11732012_x_at) / Fold change /veh TNFAIP8L3 (11732012_x_at) / RFU MBOAT4 (11741988_at) / Fold change /veh MBOAT4 (11741988_at) / RFU 11764193_at / Fold change /veh 11764193_at / RFU TMEM53 (11763286_at) / Fold change /veh TMEM53 (11763286_at) / RFU MAGEB2 (11727129_at) / Fold change /veh MAGEB2 (11727129_at) / RFU TMEM200A (11744735_a_at) / Fold change /veh TMEM200A (11744735_a_at) / RFU CCDC152 (11751479_a_at) / Fold change /veh CCDC152 (11751479_a_at) / RFU FAM211A (11726209_a_at) / Fold change /veh FAM211A (11726209_a_at) / RFU RGS16 (11746705_a_at) / Fold change /veh RGS16 (11746705_a_at) / RFU VCAN (11755009_s_at) / Fold change /veh VCAN (11755009_s_at) / RFU RHOB (11743442_s_at) / Fold change /veh RHOB (11743442_s_at) / RFU RGS16 (11720943_a_at) / Fold change /veh RGS16 (11720943_a_at) / RFU RGS16 (11720944_at) / Fold change /veh RGS16 (11720944_at) / RFU, VPS4B / Fold change vs veh, VPS4B / RFU, CREB1 / Fold change vs veh, CREB1 / RFU, DNAJC13 / Fold change vs veh, DNAJC13 / RFU, GNAQ / Fold change vs veh, GNAQ / RFU, CDK5R1 / Fold change vs veh, CDK5R1 / RFU, ZRANB3 / Fold change vs veh, ZRANB3 / RFU, CUL4A / Fold change vs veh, CUL4A / RFU, CCNY / Fold change vs veh, CCNY / RFU, UFL1 / Fold change vs veh, UFL1 / RFU, COG3 / Fold change vs veh, COG3 / RFU, DIAPH2 / Fold change vs veh, DIAPH2 / RFU, SKA2 / Fold change vs veh, SKA2 / RFU, AFF3 / Fold change vs veh, AFF3 / RFU, LMF1 / Fold change vs veh, LMF1 / RFU, IPO11 / Fold change vs veh, IPO11 / RFU, DFFB / Fold change vs veh, DFFB / RFU, FOXP1 / Fold change vs veh, FOXP1 / RFU, CARD8 / Fold change vs veh, CARD8 / RFU, STRN3 / Fold change vs veh, STRN3 / RFU, ADK / Fold change vs veh, ADK / RFU, RASSF2 / Fold change vs veh, RASSF2 / RFU, WIPF1 / Fold change vs veh, WIPF1 / RFU, LARP1B / Fold change vs veh, LARP1B / RFU, RASA1 / Fold change vs veh, RASA1 / RFU, RB1 / Fold change vs veh, RB1 / RFU, PPFIA1 / Fold change vs veh, PPFIA1 / RFU, MAT2A / Fold change vs veh, MAT2A / RFU, CCT5 / Fold change vs veh, CCT5 / RFU, WDR92 / Fold change vs veh, WDR92 / RFU, CUX1 / Fold change vs veh, CUX1 / RFU, TTC7A / Fold change vs veh, TTC7A / RFU, TMEM135 / Fold change vs veh, TMEM135 / RFU, DEPTOR / Fold change vs veh, DEPTOR / RFU, CPM / Fold change vs veh, CPM / RFU, DNAJB6 / Fold change vs veh, DNAJB6 / RFU, CACNA2D3 / Fold change vs veh, CACNA2D3 / RFU, DTX4 / Fold change vs veh, DTX4 / RFU, TFCP2 / Fold change vs veh, TFCP2 / RFU, GMCL1 /// GMCL1P1 / Fold change vs veh, GMCL1 /// GMCL1P1 / RFU, AEBP2 / Fold change vs veh, AEBP2 / RFU, SNHG1 /// SNORD22 /// SNORD25 /// SNORD26 /// SNORD27 /// SNORD28 /// SNORD29 /// SNORD31 / Fold change vs veh, SNHG1 /// SNORD22 /// SNORD25 /// SNORD26 /// SNORD27 /// SNORD28 /// SNORD29 /// SNORD31 / Fold change (Aza/veh), C12orf56 (ProbeSet 11735607_a_at) / Fold change (ACY-1035/veh), C12orf56 (ProbeSet 11735607_a_at) / Fold change (Aza/veh), FGFR1OP (ProbeSet 11751329_s_at) / Fold change (ACY-1035/veh), FGFR1OP (ProbeSet 11751329_s_at) / Fold change (Aza/veh), VPS36 (ProbeSet 11739960_a_at) / Fold change (ACY-1035/veh), VPS36 (ProbeSet 11739960_a_at) / RFU SYPL1 (11715823_x_at) / Fold change /veh SYPL1 (11715823_x_at) / RFU IGFBP7 (11715501_s_at) / Fold change /veh IGFBP7 (11715501_s_at) / RFU REEP3 (11722064_at) / Fold change /veh REEP3 (11722064_at) / RFU IGLL1 (11728026_x_at) / Fold change /veh IGLL1 (11728026_x_at): dose or concentration left out as unconfirmed
Conditions: ProbeSet 11747889_x_at; LIST B

Nc1ncn([C@@H]2O[C@H](CO)[C@@H](O)[C@H]2O)c(=O)n1 [azacitidine]
Fold change vs veh, SH3YL1: 0.87
